Data taken from paper PMC9822072, “Synthesis and Structure–Activity Relationship of 2,6-Disubstituted Thiosemicarbazone Derivatives of Pyridine as Potential Antituberculosis Agents” (Materials, 2023).
In brackets after ≈: the same amount, converted by molar mass.

Tested on: M. tuberculosis Spec. 210 (resistant strain isolated from TB patients)
Assay: Tuberculostatic activity, twofold serial microdilution with Alamar Blue
Assay type: cell-based
Details: Mycobacterium tuberculosis, 504 h, read-out: MIC Spec. 210

Structure (SMILES)	MIC [µg/mL]
NC(=NNC(=S)N1CCOCC1)c1cccc(N2CCCC2)n1 [Compound 4, N’-(Morpholine-4-Carbonothioyl)-6-(Pyrrolidin-1-Yl)Picolinohydrazonamide]	4 (≈ 12 µM)
NC(=NNC(=S)N1CCCC1)c1cccc(N2CCCC2)n1 [Compound 5, 6-(Pyrrolidin-1-Yl)-N’-(Pyrrolidine-1-Carbonothioyl)Picolinohydrazonamide]	1 (≈ 3.14 µM)
NC(=NNC(=S)N1CCOCC1)c1cccc(N2CCCCC2)n1 [Compound 6, N’-(Morpholine-4-Carbonothioyl)-6-(Piperidin-1-Yl)Picolinohydrazonamide]	1 (≈ 2.87 µM)
NC(=NNC(=S)N1CCCC1)c1cccc(N2CCCCC2)n1 [Compound 7, 6-(Piperidin-1-Yl)-N’-(Pyrrolidine-1-Carbonothioyl)Picolinohydrazonamide]	0.5 (≈ 1.5 µM)
NC(=NNC(=S)N1CCOCC1)c1cccc(Oc2ccccc2)n1 [Compound 8, N’-(Morpholine-4-Carbonothioyl)-6-Phenoxypicolinohydrazonamide]	4 (≈ 11.2 µM)
NC(=NNC(=S)N1CCCC1)c1cccc(Oc2ccccc2)n1 [Compound 9, 6-Phenoxy-N’-(Pyrrolidine-1-Carbonothioyl)Picolinohydrazonamide]	4 (≈ 11.7 µM)
NNC(=O)c1ccncc1 [INH, isoniazid, reference compound]	8 (≈ 58.3 µM)
